Experimental data from US12617762B2, “Carboxy derivatives with antiinflamatory properties” (Sitryx Therapeutics Limited, priority 2019, dated 2026).
Like-named read-outs stand apart in the source and are kept apart here. Values belong to the compound of their own block, whether it stands above or below them.

Key:
[1] = test system: IL-1β cytokine output from THP-1s; test: THP-1 AlphaLISA IL-1β cytokine inhibition assay; type: cell-based; settings: for IC50: Homo sapiens; for IL-1β lowering, result in words: THP-1 IL-1β assay
In short: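 IL-1β release by AlphaLISA, expressed as % inhibition against +/− LPS controls on each plate. Differentiation: PMA, 72 h. Sequence: 30 min compound pre-treatment, LPS 24 h, Nigericin 1 h before supernatant harvest, all at 37° C./5% CO2.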

[2] = test system: NRF2 (nuclear factor erythroid 2-related factor 2); test: NRF2 +/-GSH activation assay (DiscoverX PathHunter NRF2 translocation kit, U2OS cells); type: cell-based
Experimental: Measuring Compound Activation Effects on the Anti-Inflammatory Transcription Factor NRF2 in DiscoverX PathHunter NRF2 Translocation Kit
Potency and efficacy of compounds of formula (I) against the target of interest to activate NRF2 (nuclear factor erythroid 2-related factor 2) were determined using the PathHunter NRF2 translocation kit (DiscoverX). The NRF2 translocation assay was run using an engineered recombinant cell line, utilising enzyme fragment complementation to determine activation of the Keap1-NRF2 protein complex and subsequent translocation of NRF2 into the nucleus. Enzyme activity was quantified using a chemiluminescent substrate consumed following the formation of a functional enzyme upon PK-tagged NRF2 translocation into the nucleus.
The assay was run under both +/−GSH (glutathione) conditions to determine the sensitivity of the compounds' NRF2-activating abilities to attenuation by GSH.
Additionally, a defined concentration of DMF was used as the ‘High’ control to normalise test compound activation responses to.
U2OS PathHunter eXpress cells were thawed from frozen prior to plating. Following plating, U2OS cells were incubated for 24 hrs (37° C./5% CO2) in commercial kit provided cell medium.
Following 24 hrs of U2OS incubation, cells were directly treated with an appropriate final concentration of compound, for −GSH conditions or, for +GSH conditions, an intermediate plate containing 6× working concentrations of compound stocks was prepared in a 6 mM working concentration of GSH solution (solubilised in sterile PBS). Following a 30 minute compound-GSH pre-incubation (37° C./5% CO2) for +GSH treatment, plated U2OS cells were incubated with an appropriate final concentration of compound and GSH.
Following compound (+/−GSH) treatment, the U2OS plates were incubated for a further 6 hours (37° C./5% CO2) before detection reagent from the PathHunter NRF2 commercial kit was prepared and added to test plates according to the manufacturer's instructions. Subsequently, the luminescence signal detection was measured in a microplate reader (PHERAstar®, BMG Labtech).
Percentage activation was calculated by normalising the sample data to the high and low controls used within each plate (+/−DMF).

[3] = Hepatocyte stability assay, mouse; type: in vitro ADME; settings: mouse, hepatocytes; for hepatocyte CLint at 10 μM: Hepatocyte stability Clint; for half-life at 10 μM: Hepatocyte stability T½
Excerpt: (§1) Defrosted cryo-preserved hepatocytes (viability >70%) were used to determine the metabolic stability of a compound via calculation of intrinsic clearance (CIint; a measure of the removal of a compound from the liver in the absence of blood flow and cell binding). Clearance data are particularly important for in vitro work as they can be used in combination with in vivo data to predict the half-life and oral bioavailability of a drug.
(§2) The metabolic stability in hepatocytes assay involves a time-dependent reaction using both positive and negative controls. The cells were pre-incubated at 37° C. then spiked with test compound (and positive control); samples were taken at pre-determined time intervals and were analysed to monitor the change in concentration of the initial drug compound over 60 minutes. A buffer incubation reaction (with no hepatocytes present) acted as a negative control and two cocktail solutions, containing compounds with known high and low clearance values (verapamil/7-hydroxycoumarin and propranolol/diltiazem), acted as positive controls. • 1. The assay was run with a cell concentration of 0.5×10^6 cells/mL in Leibovitz buffer. • 2. All compounds and controls were run in duplicate. • 3. Compound concentration was 10 μM. • 4. All compounds and controls were incubated with both cells and buffer to show turnover was due to hepatic metabolism. • 5. All wells on the incubation plate had 326.7 μL of either cells or buffer added. • 6. Prior to assay, cell and buffer-only incubation plates were preincubated for 10 mins at 37° C. • 7. The assay was initiated by adding compounds, 3.3 μL of 1 mM in 10% DMSO—90% Buffer; final DMSO concentration was 0.1%. • 8. Samples were taken at regular timepoints (0, 5, 10, 20, 40, 60 min) until 60 mins. • 9. Sample volume was 40 μL and was added to 160 μL of crash solvent (acetonitrile with internal standard) and stored on ice. • 10. At the end of the assay, the crash plates were centrifuged at 3500 rpm for 20 mins at 4° C. • 11. 80 μL of clear supernatant was removed and mixed with 80 μL of deionised water before being analysed by LC-MS/MS.
(§3) Raw LC-MS/MS data was exported to, and analysed in, Microsoft Excel for determination of intrinsic clearance. The percentage remaining of a compound was monitored using the peak area of the initial concentration as 100%. Intrinsic clearance and half-life values were calculated using a graph of the natural log of percentage remaining versus the time of reaction in minutes.

[4] = Hepatocyte stability assay, human; type: in vitro ADME; settings: human, hepatocytes; for hepatocyte CLint at 10 μM: Hepatocyte stability Clint; for half-life at 10 μM: Hepatocyte stability T½
Excerpt: as §1, §2, §3

[5] = THP-1, differentiated THP-1 cells, LPS then nigericin
[6] = +GSH, 30 minute compound-GSH pre-incubation, read-out: NRF2 activation +GSH EC50
[7] = +GSH, normalised to DMF high control
[8] = −GSH, U2OS PathHunter cells, 6 hours compound treatment, read-out: NRF2 activation −GSH EC50
[9] = −GSH, normalised to DMF high control

Compound: C=C(Cc1nc(C2(c3ccc(OC)cc3)CC2)no1)C(=O)O [Example 45, 2-((3-(1-(4-methoxyphenyl)cyclopropyl)-1,2,4-oxadiazol-5-yl)methyl)acrylic acid]
IC50 [1, 5]: 38.8 µM
EC50 [2, 6]: > 100 µM
NRF2 activation +GSH Emax [2, 7]: 9%
EC50 [2, 8]: > 100 µM
NRF2 activation −GSH Emax [2, 9]: 55%
hepatocyte CLint at 10 μM [3]: 33 µL/min/1e6 cells
half-life at 10 μM [3]: 49 min
hepatocyte CLint at 10 μM [4]: 8 µL/min/1e6 cells
half-life at 10 μM [4]: 178 min

Compound: C=C(Cc1nc(Cc2ccc(Cl)cc2)no1)C(=O)O [Example 4, 2-((3-(4-chlorobenzyl)-1,2,4-oxadiazol-5-yl)methyl)acrylic acid]
IC50 [1, 5]: 49.3 µM
EC50 [2, 6]: > 100 µM
NRF2 activation +GSH Emax [2, 7]: 23%
EC50 [2, 8]: 40.5 µM
NRF2 activation −GSH Emax [2, 9]: 47%
hepatocyte CLint at 10 μM [3]: 13 µL/min/1e6 cells
half-life at 10 μM [3]: 93 min
hepatocyte CLint at 10 μM [4]: < 3 µL/min/1e6 cells
half-life at 10 μM [4]: > 460 min

Compound: C=C(Cc1nc(C2(c3cccc(Cl)c3)CC2)no1)C(=O)O [Example 21, 2-((3-(1-(3-chlorophenyl)cyclopropyl)-1,2,4-oxadiazol-5-yl)methyl)acrylic acid]
IC50 [1, 5]: > 100 µM
IL-1β lowering, result in words [1]: not effective
EC50 [2, 6]: 44 µM
NRF2 activation +GSH Emax [2, 7]: 81%
EC50 [2, 8]: 31.7 µM
NRF2 activation −GSH Emax [2, 9]: 125%
hepatocyte CLint at 10 μM [3]: 62 µL/min/1e6 cells
half-life at 10 μM [3]: 28 min
hepatocyte CLint at 10 μM [4]: 21 µL/min/1e6 cells
half-life at 10 μM [4]: 83 min

Compound: C=C(Cc1nnc(CCCCCCCC)s1)C(=O)O [Example 37, 2-((5-octyl-1,3,4-thiadiazol-2-yl)methyl)acrylic acid]
IC50 [1, 5]: 14.6 µM
EC50 [2, 6]: 9.5 µM
NRF2 activation +GSH Emax [2, 7]: 139%
EC50 [2, 8]: 8.4 µM
NRF2 activation −GSH Emax [2, 9]: 162%
hepatocyte CLint at 10 μM [3]: > 481 µL/min/1e6 cells
half-life at 10 μM [3]: < 3 min
hepatocyte CLint at 10 μM [4]: 32 µL/min/1e6 cells
half-life at 10 μM [4]: 40 min

Compound: C=C(Cc1nc(Cc2ccc(C(C)(C)C)cc2)no1)C(=O)O [Example 15, 2-((3-(4-(tert-butyl)benzyl)-1,2,4-oxadiazol-5-yl)methyl)acrylic acid]
IC50 [1, 5]: 23.8 µM
EC50 [2, 6]: > 100 µM
NRF2 activation +GSH Emax [2, 7]: 33%
EC50 [2, 8]: 57.1 µM
NRF2 activation −GSH Emax [2, 9]: 41%
hepatocyte CLint at 10 μM [3]: 31 µL/min/1e6 cells
half-life at 10 μM [3]: 35 min
hepatocyte CLint at 10 μM [4]: 7.5 µL/min/1e6 cells
half-life at 10 μM [4]: 167 min

Compound: C=C(Cc1nc(-c2ccc(CCCC)cc2)no1)C(=O)O [Example 18, 2-((3-(4-butylphenyl)-1,2,4-oxadiazol-5-yl)methyl)acrylic acid]
IC50 [1, 5]: 15.3 µM
EC50 [2, 6]: 3.8 µM
NRF2 activation +GSH Emax [2, 7]: 159%
EC50 [2, 8]: 3.5 µM
NRF2 activation −GSH Emax [2, 9]: 207%
hepatocyte CLint at 10 μM [3]: > 460 µL/min/1e6 cells
half-life at 10 μM [3]: < 3 min
hepatocyte CLint at 10 μM [4]: 159 µL/min/1e6 cells
half-life at 10 μM [4]: 11 min

IC50 ([1]; THP-1, Table 3, head to head comparison of exo vs endo double bond compounds): > 100 µM
IC50 [1, 5]: > 100 µM
EC50 [2, 6]: > 100 µM
EC50 ([2]; −GSH, Table 5 exo vs endo comparison, read-out: −GSH EC50): > 100 µM
EC50 [2, 8]: > 100 µM
hepatocyte CLint at 10 μM [3]: 331 µL/min/1e6 cells
half-life at 10 μM [3]: 6 min
hepatocyte CLint at 10 μM [4]: 35 µL/min/1e6 cells
half-life at 10 μM [4]: 35 min
Compound: CCCCOc1ccc(-c2noc(/C=C(\C)C(=O)O)n2)cc1 [Example 167]
NRF2 activation +GSH Emax [2, 7]: 15%
NRF2 activation −GSH Emax [2, 9]: 100%
−GSH Emax ([2]; −GSH, normalised to DMF high control, Table 5 exo vs endo comparison): 100%

IC50 [1, 5]: > 100 µM
EC50 [2, 6]: > 100 µM
EC50 [2, 8]: > 100 µM
hepatocyte CLint at 10 μM [3]: 95 µL/min/1e6 cells
hepatocyte CLint at 10 μM [4]: 21 µL/min/1e6 cells
Compound: C=C(Cc1ccccc1Cl)C(=O)O [2-(2-chlorobenzyl)acrylic acid, reference compound]
NRF2 activation +GSH Emax [2, 7]: 9%
NRF2 activation −GSH Emax [2, 9]: 2%

Compound: C=C(Cc1nc(CCCCCCC(C)(F)F)no1)C(=O)O [Example 31, 2-((3-(7,7-difluorooctyl)-1,2,4-oxadiazol-5-yl)methyl)acrylic acid]
IC50 [1, 5]: > 100 µM
IL-1β lowering, result in words [1]: not effective
EC50 [2, 6]: 40.9 µM
NRF2 activation +GSH Emax [2, 7]: 127%
EC50 [2, 8]: 35 µM
NRF2 activation −GSH Emax [2, 9]: 178%
hepatocyte CLint at 10 μM [3]: 42 µL/min/1e6 cells
half-life at 10 μM [3]: 27 min
hepatocyte CLint at 10 μM [4]: 5 µL/min/1e6 cells
half-life at 10 μM [4]: 246 min

Compound: C=C(Cc1nnc(CCCCCCCC)o1)C(=O)O [Example 2, 2-((5-octyl-1,3,4-oxadiazol-2-yl)methyl)acrylic acid]
IC50 [1, 5]: 36.8 µM
EC50 [2, 6]: 26.8 µM
NRF2 activation +GSH Emax [2, 7]: 169%
EC50 [2, 8]: 19.1 µM
NRF2 activation −GSH Emax [2, 9]: 176%
hepatocyte CLint at 10 μM [3]: 74 µL/min/1e6 cells
half-life at 10 μM [3]: 19 min
hepatocyte CLint at 10 μM [4]: 95 µL/min/1e6 cells
half-life at 10 μM [4]: 15 min

Compound: C=C(Cc1nc(-c2ccc(CCCCC)cc2)no1)C(=O)O [Example 23, 2-((3-(4-pentylphenyl)-1,2,4-oxadiazol-5-yl)methyl)acrylic acid]
IC50 [1, 5]: 4.6 µM
EC50 [2, 6]: 2.2 µM
NRF2 activation +GSH Emax [2, 7]: 162%
EC50 [2, 8]: 1.6 µM
NRF2 activation −GSH Emax [2, 9]: 209%
hepatocyte CLint at 10 μM [3]: > 460 µL/min/1e6 cells
half-life at 10 μM [3]: < 3 min
hepatocyte CLint at 10 μM [4]: 321 µL/min/1e6 cells
half-life at 10 μM [4]: 5 min

Compound: C=C(Cc1nc(Cc2ccc(CCCCC)cc2)no1)C(=O)O [Example 28, 2-((3-(4-pentylbenzyl)-1,2,4-oxadiazol-5-yl)methyl)acrylic acid]
IC50 [1, 5]: 7.7 µM
EC50 [2, 6]: 4 µM
NRF2 activation +GSH Emax [2, 7]: 201%
EC50 [2, 8]: 3 µM
NRF2 activation −GSH Emax [2, 9]: 264%
hepatocyte CLint at 10 μM [3]: > 460 µL/min/1e6 cells
half-life at 10 μM [3]: < 3 min
hepatocyte CLint at 10 μM [4]: 103 µL/min/1e6 cells
half-life at 10 μM [4]: 12 min

Compound: C=C(Cc1nc(CCc2ccc(CCC)cc2)no1)C(=O)O [Example 36, 2-((3-(4-propylphenethyl)-1,2,4-oxadiazol-5-yl)methyl)acrylic acid]
IC50 [1, 5]: 37.5 µM
EC50 [2, 6]: 14.2 µM
NRF2 activation +GSH Emax [2, 7]: 181%
EC50 [2, 8]: 10.1 µM
NRF2 activation −GSH Emax [2, 9]: 216%
hepatocyte CLint at 10 μM [3]: 249 µL/min/1e6 cells
half-life at 10 μM [3]: 7 min
hepatocyte CLint at 10 μM [4]: 23 µL/min/1e6 cells
half-life at 10 μM [4]: 61 min

IC50 [1, 5]: 1.6 µM
EC50 [2, 6]: 4.2 µM
EC50 [2, 8]: 3.5 µM
hepatocyte CLint at 10 μM [3]: 338 µL/min/1e6 cells
half-life at 10 μM [3]: 4 min
hepatocyte CLint at 10 μM [4]: 73 µL/min/1e6 cells
half-life at 10 μM [4]: 19 min
Compound: C=C(Cc1nc(C2(c3cc(Cl)c(F)c(Cl)c3)CC2)no1)C(=O)O [Example 133, 2-((3-(1-(3,5-dichloro-4-fluorophenyl)cyclopropyl)-1,2,4-oxadiazol-5-yl)methyl)acrylic acid]
NRF2 activation +GSH Emax [2, 7]: 281%
NRF2 activation −GSH Emax [2, 9]: 234%
